“Also recorded” adds a separate entry of the source. Like-named read-outs stand apart in the source and are kept apart here.
Key:
ΔcopA mutant strain = test: Growth curves in ThyB with copper sulfate and compound, copper exporter deficient mutant; type: cell-based, Streptococcus pneumoniae; conditions: compound plus copper
From the text: Final solution was set to pH 6.6.

WT TIGR4 S. pneumoniae [1] = test: Growth curves in ThyB with copper sulfate and compound; conditions: for copper-dependent toxicity (CDT) / growth defect in growth curve: compound plus copper sulfate
[2] = system: Methicillin-resistant Staphylococcus aureus (MRSA); conditions: topical cream containing 50 mg DMDC twice daily
Streptococcus pneumoniae = conditions: 150 mg DMDC orally once a day for a week
WT TIGR4 S. pneumoniae [3] = conditions: RPMI
[4] = cited from earlier work
WT TIGR4 S. pneumoniae [5] = conditions: M17
Streptococcus pyogenes = conditions: inhaler with 25 mg DMDC twice a day for two weeks
TIGR4 S. pneumoniae [6] = conditions: ICP-OES
Coccidioides posadasii = conditions: inhaler with 50 mg DMDC twice a day for a week
WT TIGR4 S. pneumoniae [7] = test: Killing curves in THYB
TIGR4 S. pneumoniae [8] = conditions: GFAAS
S. aureus = conditions: cited from earlier work
[9] = system: WT TIGR4 bacteria co-cultured with activated J774A.1 macrophages; test: Macrophage killing assay, TIGR4 co-cultured with J774A.1 macrophages; type: cell-based, murine; conditions: macrophages with 100 μM inhibitor; bacteria treated with 250 μM Cu2+ + 16 μM DMDC
Schistosoma mansoni = conditions: newly transformed and lung stage schistosomula; cited from earlier work
M. tuberculosis = conditions: cited from earlier work

## O.c1cnc2c(c1)ccc1cccnc12 [1,10-phenalthroline monohydrate]
ΔcopA mutant strain
  CDT / growth defect in growth curve, ΔcopA: an effect
WT TIGR4 S. pneumoniae [1]; WT TIGR4
  copper-dependent toxicity (CDT) / growth defect in growth curve: no effect on wild type

## CN(C)C(=S)[S][Na] [DMDC]
[2]
  side effects: No side effects
Streptococcus pneumoniae
  side effects: No side effects
WT TIGR4 S. pneumoniae [3]
  time required for killing: 3 to 4 h
[4]; chronic use
  toxicity of chronic use: harm the liver and lead to higher rates of some carcinomas
[4]; high doses
  toxicity of high doses: neurological problems
WT TIGR4 S. pneumoniae [5]
  time required for killing: 1 to 2 h
Streptococcus pyogenes
  side effects: No side effects
TIGR4 S. pneumoniae [6]; 250 μM Cu2+ + 16 μM DMDC
  increase of intracellular copper compared to the untreated control: 65 fold
TIGR4 S. pneumoniae [6]; 250 μM Cu2+ + 32 μM DMDC
  increase of intracellular copper compared to the untreated control: 67 fold
Coccidioides posadasii
  side effects: No side effects
WT TIGR4 S. pneumoniae [7]; low micromolar DMDC complexed with copper, in 2 hours
  kill of wild-type Streptococcus pneumoniae: up to 99.9%
TIGR4 S. pneumoniae [8]; 250 μM Cu2+ + 16 μM DMDC
  increase of intracellular copper compared to the copper treated samples: 7 fold
TIGR4 S. pneumoniae [8]; 250 μM Cu2+ + 32 μM DMDC
  increase of intracellular copper compared to the copper treated samples: 10 fold

## Cc1ncc(CSSCc2cnc(C)c(O)c2CO)c(CO)c1O.Cl [pyrithoxin dihydrochloride]
WT TIGR4 S. pneumoniae [1]; WT TIGR4
  copper-dependent toxicity (CDT) / growth defect in growth curve: no effect

## Oc1cccc2cccnc12 [8HQ, 8-hydroxyquinoline]
ΔcopA mutant strain
  CDT / growth defect in growth curve, ΔcopA: susceptible; also recorded: does cause a growth defect
[4]; mammals
  toxicity in mammals: inherent toxicity
S. aureus
  CDT against S. aureus: have CDT
WT TIGR4 S. pneumoniae [1]; WT TIGR4
  copper-dependent toxicity (CDT) / growth defect in growth curve: no 8HQ mediated CDT; also recorded: do not cause a significant growth defect

## CCN(CC)C(=S)S [DETDC, N,N-diethyldithiocarbamate]
WT TIGR4 S. pneumoniae [1]; with copper
  CDT at much higher / high concentrations: no effect

## N=C(N)NOCC[C@H](N)C(=O)O [L-canavanine]
[9]
  recovered bacteria with macrophage inhibitor treatment: no statistically significant improvement

## S=C(S)N1CCN(C(=S)S)CC1 [TLA2, Piperizine bis-dithiocarbamate]
WT TIGR4 S. pneumoniae [1]; 250 uM or 500 uM copper sulfate
  concentration showing protective effect vs copper: > 32 µM

## O=C(C1CCCCC1)N1CC(=O)N2CCc3ccccc3C2C1 (stereo not drawn) [praziquantel]
Schistosoma mansoni
  efficacy of praziquantel in these developmental stages: not effective

## CCN(CC)C(=S)SSC(=S)N(CC)CC [TETD, tetraethylthiuram disulfide]
M. tuberculosis
  copper dependent toxicity against M. tuberculosis: copper dependent toxicity
WT TIGR4 S. pneumoniae [7]; compound alone or with copper sulfate
  bactericidal activity in killing curve: did not show bactericidal activity
WT TIGR4 S. pneumoniae [1]; TETD alone, no copper
  growth with compound alone: prevented growth
WT TIGR4 S. pneumoniae [1]; WT TIGR4
  copper-dependent toxicity (CDT) / growth defect in growth curve: returned growth to wild type levels
WT TIGR4 S. pneumoniae [1]; WT TIGR4, listed as disulfiram
  copper-dependent toxicity (CDT) / growth defect in growth curve: not observed

## COc1cc(C(C)=O)ccc1O [apocynin]
[9]
  recovered bacteria with macrophage inhibitor treatment: no statistically significant improvement

## CC1(C)C2CC3OB(c4cccc5cccnc45)OC3(C)C1C2 (stereo not drawn) [QBP, quinoline boronic acid pinanediol ester]
ΔcopA mutant strain
  CDT / growth defect in growth curve, ΔcopA: susceptible; also recorded: does cause a growth defect
  CDT on the ΔcopA mutant as compared to 8HQ: did not exhibit as much CDT
WT TIGR4 S. pneumoniae [1]; WT TIGR4
  copper-dependent toxicity (CDT) / growth defect in growth curve: no CDT; also recorded: do not cause a significant growth defect

— patent publication US20240173292A1, “COMPOUNDS THAT SYNERGIZE WITH COPPER TO KILL STREPTOCOCCUS PNEUMONIAE” (priority 2021, published 2024)
